Source: PubChem BioAssay (NCI)
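Each compound was tested at five concentrations against cells in 96-well plates for 48 hours. At the GI50, growth is halved. Definition used: TGI = concentration required for complete inhibition of growth.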

How the values were obtained:
Test in all cases: inhibition of tumour cell growth, NCI panel, 48 h
PC-3 prostate = test system: PC-3 prostate
MDA-MB-231 breast = test system: MDA-MB-231 breast
UACC-62 melanoma = test system: UACC-62 melanoma
HCC-2998 colon = test system: HCC-2998 colon
RXF 393 renal = test system: RXF 393 renal
MDA-MB-435 = test system: MDA-MB-435
U251 CNS = test system: U251 CNS
MOLT-4 leukemia = test system: MOLT-4 leukemia
SF-268 CNS = test system: SF-268 CNS
IGROV1 ovarian = test system: IGROV1 ovarian

## Nc1c(C(=O)Nc2cccc(Br)c2)sc2nc3c(cc12)C(O)CCC3 (configuration not stated)
PC-3 prostate
  GI50: 0.349 µM
  TGI: 24.4 µM
MDA-MB-231 breast
  GI50: 2.24 µM
  TGI: > 85.7 µM
UACC-62 melanoma
  GI50: 0.41 µM
  TGI: > 94.9 µM
HCC-2998 colon
  GI50: 1.61 µM
  TGI: 50.2 µM
RXF 393 renal
  GI50: 0.361 µM
  TGI: 6.26 µM
MDA-MB-435
  GI50: 0.115 µM
  TGI: 0.35 µM
U251 CNS
  GI50: 0.487 µM
  TGI: 20.4 µM
MOLT-4 leukemia
  GI50: 0.518 µM
  TGI: 98 µM
SF-268 CNS
  GI50: 0.682 µM
  TGI: > 57.6 µM
IGROV1 ovarian
  GI50: 0.833 µM
  TGI: > 70.3 µM

## Cc1ncc([N+](=O)[O-])n1CCNC(=O)CCCCCn1ccnc1[N+](=O)[O-]
PC-3 prostate
  TGI: > 100 µM
MDA-MB-231 breast
  TGI: > 100 µM
UACC-62 melanoma
  TGI: > 100 µM
HCC-2998 colon
  TGI: > 100 µM
MDA-MB-435
  TGI: > 100 µM
U251 CNS
  TGI: > 100 µM
MOLT-4 leukemia
  TGI: > 100 µM
SF-268 CNS
  TGI: > 100 µM
IGROV1 ovarian
  TGI: > 100 µM

## CCCCOc1ccc(/C=N/Nc2cc(C)nc3ccc(Cl)cc23)cc1
PC-3 prostate
  GI50: 1.71 µM
  TGI: 3.35 µM
MDA-MB-231 breast
  GI50: 1.74 µM
  TGI: 3.25 µM
UACC-62 melanoma
  GI50: 1.61 µM
  TGI: 3.02 µM
HCC-2998 colon
  GI50: 1.91 µM
  TGI: 3.38 µM
RXF 393 renal
  GI50: 1.41 µM
  TGI: 2.74 µM
MDA-MB-435
  GI50: 1.73 µM
  TGI: 3.17 µM
U251 CNS
  GI50: 1.72 µM
  TGI: 3.19 µM
MOLT-4 leukemia
  GI50: 1.7 µM
  TGI: 3.61 µM
IGROV1 ovarian
  GI50: 1.93 µM
  TGI: 3.63 µM

## Cc1ccc2c(c1)C(=O)c1c-2n(CCCN=[N+]=[N-])c(=O)c2cc([N+](=O)[O-])ccc12
PC-3 prostate
  GI50: 33.4 µM
  TGI: > 100 µM
MDA-MB-231 breast
  GI50: 46.9 µM
  TGI: > 100 µM
UACC-62 melanoma
  GI50: 30.3 µM
  TGI: > 100 µM
HCC-2998 colon
  GI50: > 100 µM
  TGI: > 100 µM
RXF 393 renal
  GI50: > 100 µM
  TGI: > 100 µM
MDA-MB-435
  GI50: > 100 µM
  TGI: > 100 µM
MOLT-4 leukemia
  GI50: 17.8 µM
  TGI: 70.4 µM
SF-268 CNS
  GI50: 5.59 µM
  TGI: > 100 µM
IGROV1 ovarian
  GI50: 19.2 µM
  TGI: > 100 µM

## Cc1nnc(-c2ccc(-c3nc4ccccc4o3)cc2)o1
PC-3 prostate
  GI50: 34.7 µM
  TGI: > 100 µM
MDA-MB-231 breast
  GI50: 36.3 µM
  TGI: > 100 µM
UACC-62 melanoma
  GI50: 36.8 µM
  TGI: > 100 µM
HCC-2998 colon
  GI50: 78.8 µM
  TGI: > 100 µM
MDA-MB-435
  GI50: > 100 µM
  TGI: > 100 µM
U251 CNS
  GI50: 16.4 µM
  TGI: 34.8 µM
SF-268 CNS
  GI50: 28.6 µM
  TGI: 92.2 µM
IGROV1 ovarian
  GI50: > 100 µM
  TGI: > 100 µM

## COc1c(N2CCN(Cn3c(O)c(N=NC(=O)c4ccncc4)c4cc(F)ccc43)C(C)C2)c(F)cc2c(=O)c(C(=O)O)cn(C3CC3)c12 (configuration not stated)
PC-3 prostate
  GI50: > 50 µM
  TGI: > 50 µM
MDA-MB-231 breast
  GI50: 8.31 µM
  TGI: 27.7 µM
UACC-62 melanoma
  GI50: > 50 µM
  TGI: > 50 µM
RXF 393 renal
  GI50: 8.44 µM
  TGI: 20.6 µM
MDA-MB-435
  GI50: > 50 µM
  TGI: > 50 µM
U251 CNS
  GI50: 14.7 µM
  TGI: > 50 µM
MOLT-4 leukemia
  GI50: 39.1 µM
  TGI: > 50 µM
SF-268 CNS
  GI50: 10.6 µM
  TGI: 38.2 µM
IGROV1 ovarian
  GI50: 42.1 µM
  TGI: > 50 µM

## C1CC[N-]CC1.CC(=N\O)/C(C)=N/O.CC(=N\O)/C(C)=N/O.[CH2-]CCN1CCOCC1.[Co+2]
PC-3 prostate
  GI50: > 100 µM
  TGI: > 100 µM
MDA-MB-231 breast
  GI50: > 100 µM
  TGI: > 100 µM
UACC-62 melanoma
  GI50: > 100 µM
  TGI: > 100 µM
RXF 393 renal
  GI50: > 100 µM
  TGI: > 100 µM
MDA-MB-435
  GI50: > 100 µM
  TGI: > 100 µM
U251 CNS
  GI50: > 100 µM
  TGI: > 100 µM
MOLT-4 leukemia
  GI50: 5.91 µM
  TGI: 39.5 µM
SF-268 CNS
  GI50: > 100 µM
  TGI: > 100 µM
IGROV1 ovarian
  GI50: > 100 µM
  TGI: > 100 µM
